Consider 53 compounds from PubChem BioAssay AID720570 (Broad Institute, 2013).

Molecules are shown by their SMILES. The source made the active and inactive calls.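 How the source made its calls: active means cell-killing curve crosses a set limit at a concentration no more than twice the top valid dose; inconclusive means flat curve with a 30 to 70% loss, or a poor fit; inactive means signal rising instead of falling, and the rest.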

The nature of this test: TC71 Ewing sarcoma cell killing, confirmation, luminescence, cherry-picked samples, retest (AID 720570). Conditions: TC71 Ewing sarcoma viability, CellTiter-Glo ATP, 72 h.

Regarding `CC(=O)Nc1ccc(OCC(=O)N(CC(C)C)C2CCS(=O)(=O)C2)cc1` (stereo not drawn), the activity change, negative = cytotoxicity (at 26 µM (top of the series)) is 11.9% (inactive).

With `COc1ccc(N=C(NN)c2ccc3ccccc3n2)cc1`, the activity change, negative = cytotoxicity (at 26 µM (top of the series)) was 4.27% (inactive). Turning to `Cc1occc1-c1n[nH]c(=S)n1C`, the activity change, negative = cytotoxicity (at 26 µM (top of the series)) was 0.805% (inactive).

In the case of `CC(=O)Nc1ccc(S(=O)(=O)Nc2ccc(N3CCCCC3)cc2)cc1`, the activity change, negative = cytotoxicity (at 26 µM (top of the series)) was -4.73% (inactive). Same read-out and setting: for `O=c1oc2cc(O)ccc2s1` the value was -26.8% (inactive). For `O=C(O)CN1C(=O)/C(=C\c2ccccc2OCc2ccc(Cl)cc2Cl)SC1=S`, the activity change, negative = cytotoxicity (at 26 µM (top of the series)) is 10.8% (inactive). The same measure, in the same setting: for `COCc1cc(C)nc2sc(C(=O)NCCO)c(-n3cccc3)c12` the value was 3.9% (inactive). Take `N#Cc1cccc(-c2ccc(C3[C@@H]4CN(C(=O)Cc5ccncc5)C[C@H]3N4)cc2)c1` (stereo partly drawn): the activity change, negative = cytotoxicity (at 26 µM (top of the series)) was 0.809% (inactive). On the same count and under the same terms, for `CO[C@H]1CN(C)C(=O)c2cc(NC(=O)c3ccc(Oc4ccccc4)cc3)ccc2OC[C@H](C)NC[C@@H]1C` the value was -22.7% (inactive); for `Cc1sc2nc(CN3CCC(C)CC3)nc(Cl)c2c1C`, 16.2% (inactive); for `C[C@@H]1CN([C@@H](C)CO)C(=O)Cc2cc(NC(=O)Cn3cnnn3)ccc2O[C@@H]1CN(C)Cc1ccc(Oc2ccccc2)cc1`, 21.2% (inactive). As to `C/C(=N\Nc1cccc2cccnc12)c1ccccn1`, under “at 26 µM (top of the series)”, the activity change, negative = cytotoxicity is 3.52% (inactive). `Cc1csc(NC(=O)CCc2c(C)nc3cc(-c4ccc(Cl)cc4)nn3c2C)n1`: under “at 26 µM (top of the series)”, the activity change, negative = cytotoxicity was 10.8% (inactive). For the compound `Cc1ccc(C(=O)O/N=C(\N)c2ccccn2)cc1`, the activity change, negative = cytotoxicity (at 26 µM (top of the series)) was -10% (inactive). For the compound `CC1=NN(c2ccccc2)C(=O)/C1=C\C=C\c1ccccc1`, the activity change, negative = cytotoxicity (at 26 µM (top of the series)) was 22.9% (inactive). Consider `COC(=O)C[C@@H]1CC[C@@H]2[C@H](COc3ccc(NC(=O)c4ccc(F)c(F)c4)cc3C(=O)N2C)O1`, for which, for the setting “at 26 µM (top of the series)”, the activity change, negative = cytotoxicity was 9.2% (inactive). Turning to `COc1ccc2oc(C(=O)NCCc3ccccc3)c(C)c2c1`, the activity change, negative = cytotoxicity (at 26 µM (top of the series)) was 3.92% (inactive).

Turning to `COC(=O)C[C@@H]1CC[C@@H]2[C@H](COc3ccc(NC(=O)c4ccc(F)cc4)cc3C(=O)N2C)O1`, the activity change, negative = cytotoxicity (at 26 µM (top of the series)) was 15.1% (inactive). Still for that read-out and setting: for `CCCCNC(=O)C(c1ccc(OCC(=O)OC)c(C(=O)OC)c1)N(CCOC)C(=O)CCCCCN1C(=O)NC(c2ccc(-c3ccccc3)cc2)C(C(=O)OCc2ccccc2)=C1C` (stereo not drawn) the value was 19.3% (inactive). On to `CCOc1ccc(-c2noc(CCC(=O)O)n2)cc1`, for which the activity change, negative = cytotoxicity (at 26 µM (top of the series)) is 14.8% (inactive). Take `O=C(/C=C/c1ccc(Cl)cc1Cl)N(Cc1ccc(Cl)cc1)C1CCS(=O)(=O)C1` (stereo not drawn): for the setting “at 26 µM (top of the series)”, the activity change, negative = cytotoxicity was 11.6% (inactive).

Take `CCOc1cc(N2CCC(O)CC2)ccc1Nc1ncc2c(n1)N(C)c1ccccc1C(=O)N2C`: the activity change, negative = cytotoxicity (at 26 µM (top of the series)) was -28.3% (inactive). On the same count and under the same terms, for `CCN(CC)c1ccc(C2NC(=O)c3ccccc3N2)cc1` (stereo not drawn) the value was -26.2% (inactive).

For the compound `CC1=NC(=O)C(N=Nc2cccc(C(=O)O)c2)N1c1ccccc1` (stereo not drawn), the activity change, negative = cytotoxicity (at 26 µM (top of the series)) was 18.2% (inactive). Consider `O=C(O)c1cccc(N/N=C/c2ccc(OC(F)(F)F)cc2)c1`, for which the activity change, negative = cytotoxicity (at 26 µM (top of the series)) is 1.52% (inactive).

For the compound `CCOc1ccc(NC(=O)C(=O)N/N=C\c2ccc(CNS(=O)(=O)c3ccccc3)o2)cc1`, the activity change, negative = cytotoxicity (at 26 µM (top of the series)) was 17.4% (inactive). Still for that read-out and setting: for `COc1cccc(S(=O)(=O)N(C)C[C@H]2OCc3cnnn3CCCC(=O)N([C@@H](C)CO)C[C@H]2C)c1` the value was -0.98% (inactive). The same measure, in the same setting: for `COc1cc(OC)cc(-c2cc3nc(C)c(CCC(=O)NCc4ccccc4)c(C)n3n2)c1` the value was 9.58% (inactive); for `COC(=O)C[C@@H]1CC[C@@H]2[C@H](COc3ccc(NC(=O)c4cc(F)cc(F)c4)cc3C(=O)N2C)O1`, -5.96% (inactive); for `COC(=O)C[C@@H]1CC[C@@H]2[C@H](COc3ccc(NC(=O)Nc4cccc(C#N)c4)cc3C(=O)N2C)O1`, 5.41% (inactive).

On to `CCOc1ccc(/C=C2\CCc3ccccc3C2=O)cc1`, for which the activity change, negative = cytotoxicity (at 26 µM (top of the series)) was 4.42% (inactive). As for `O=C(CCCCl)Nc1nc(-c2ccc3c(c2)OCCO3)cs1`, where the note is “at 26 µM (top of the series)”, the activity change, negative = cytotoxicity is 3.63% (inactive). As for `O=C(O)c1ccc2cc(-c3ccccc3)[nH]c2c1`, for the setting “at 26 µM (top of the series)”, the activity change, negative = cytotoxicity is 10.6% (inactive). Take `O=S(=O)(c1ccc(F)cc1)N1C[C@H]2[C@@H](c3ccccc31)[C@H](CO)N2Cc1ccccc1Cl`: the activity change, negative = cytotoxicity (at 23.5 µM (top of the series)) was -20.2% (inactive). With `C[C@H]1CN([C@@H](C)CO)S(=O)(=O)c2ccc(C#Cc3ccncc3)cc2O[C@@H]1CN(C)S(=O)(=O)c1ccccc1`, the activity change, negative = cytotoxicity (at 26 µM (top of the series)) was -7.09% (inactive). As for `COc1ccc(-c2sc3ccccc3c2-c2ccc(OCCN3CCCCC3)cc2)cc1`, the activity change, negative = cytotoxicity (at 26 µM (top of the series)) is 12.2% (inactive). On the same count and under the same terms, for `C[C@@H]1CN([C@H](C)CO)C(=O)c2cc(C#CCc3ccccc3)cnc2O[C@@H]1CN(C)Cc1cccc(F)c1` the value was -4.64% (inactive); for `COc1ccc2cc(C(N)=O)/c(=N\NC(=O)c3ccccc3)oc2c1`, 16.9% (inactive). Regarding `COC(=O)C[C@@H]1CC[C@@H]2[C@H](COc3ccc(NC(=O)c4cccc(F)c4)cc3C(=O)N2C)O1`, under “at 23.5 µM (top of the series)”, the activity change, negative = cytotoxicity is 2.03% (inactive). Turning to `COC(=O)C[C@@H]1CC[C@H]2[C@H](COc3ccc(NC(=O)Nc4cc(C)cc(C)c4)cc3C(=O)N2C)O1`, the activity change, negative = cytotoxicity (at 26 µM (top of the series)) was 5.7% (inactive).

For `CCc1ccc(/C=C2\SC(=S)N(CCC(=O)Nc3cc(C)on3)C2=O)cc1`, the activity change, negative = cytotoxicity (at 26 µM (top of the series)) is 9.95% (inactive). As to `COc1ccc(NC(=O)N(C)[C@H]2C[C@H]3c4[nH]c5ccccc5c4CCN3C(=O)[C@H]2CO)cc1`, the activity change, negative = cytotoxicity (at 26 µM (top of the series)) was 2.92% (inactive). Consider `O=C(CNC(c1ccccc1)c1ccccc1)Nc1ccccc1-c1ccccc1`, for which the activity change, negative = cytotoxicity (at 26 µM (top of the series)) was 11.2% (inactive). With `CC(C)CC(NC(=O)c1cccs1)c1nnc(SCc2ccc(Cl)c(Cl)c2)n1C` (stereo not drawn), the activity change, negative = cytotoxicity (at 26 µM (top of the series)) is -10% (inactive).

`CCc1c(C(=O)NN2C(=O)C3CCCCC3C2=O)csc1C` (stereo not drawn): where the note is “at 26 µM (top of the series)”, the activity change, negative = cytotoxicity was 23.1% (inactive). Still for that read-out and setting: for `O=C1CCC2S/C(=C/Nc3ccc(C(F)(F)F)cc3)C(=O)N12` (stereo not drawn) the value was 11.9% (inactive); for `CC(C)CN(C(=O)CN1CCOCC1)c1c(N)n(CC(C)C)c(=O)[nH]c1=O`, -2.81% (inactive); for `O=C(CN1C(=O)C(=O)c2ccccc21)c1ccc(Cl)cc1`, -1.64% (inactive). With `COc1ccc(S(=O)(=O)Nc2ccc3c(c2)C(=O)N([C@H](C)CO)C[C@@H](C)[C@@H](CN(C)CC2CCCCC2)OCCCC[C@H](C)O3)cc1`, the activity change, negative = cytotoxicity (at 26 µM (top of the series)) is -1.56% (inactive). `COc1ccc(OC)c(-c2cc(C(F)(F)F)c3c(n2)sc2c(O)cc(=O)[nH]c23)c1`: the activity change, negative = cytotoxicity (at 26 µM (top of the series)) is -3.31% (inactive).

As for `Cc1cccc(/C=N/Nc2ccc3ccccc3n2)c1`, the activity change, negative = cytotoxicity (at 26 µM (top of the series)) was -16.4% (inactive). In the case of `COc1ccc(Cl)cc1S(=O)(=O)Nc1ccc2c(c1)n(C)c(=O)n2C`, under “at 26 µM (top of the series)”, the activity change, negative = cytotoxicity is -4.55% (inactive).

As to `Cc1c(-c2nc(-c3ccc(C(C)(C)C)cc3)no2)n(C)oc1=O`, for the setting “at 26 µM (top of the series)”, the activity change, negative = cytotoxicity was -0.627% (inactive).
